According to patent US11912693B2, “Compounds for modulating S1P1 activity and methods of using the same” (TREVENA, INC., priority 2017, dated 2024):

Assays:
[1] = molecular target: T1, human sphingosine-1-phosphate receptor 1 (S1P1) (Homo sapiens (Human), UniProt P21453); test: Inhibition of cAMP production (HTRF cAMP HiRange), S1P1 CHO-K1 cells; type: cell-based; conditions: for hS1P1 cAMP pEC50: inhibition of cAMP production, S1P1 CHO-K1 cells; for Emax: CHO-K1, efficacy (SPAN) normalized to fingolimod, read-out: hS1P1 cAMP SPAN
Summary of the method: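 CHO-K1 cells stably co-expressing human S1P1 (C-terminal Prolink tag) and EA-β-arrestin2 were grown in AssayComplete Media 6 at 37° C. and 5% CO2, plated, and incubated overnight. Agonist-driven inhibition of intracellular cAMP was read by TR-FRET with the HTRF cAMP HiRange kit on a PheraStar reader. Potency is pEC50, and efficacy (SPAN) is normalized to fingolimod.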
Target sequence in this assay (P21453 whole entry, looked up): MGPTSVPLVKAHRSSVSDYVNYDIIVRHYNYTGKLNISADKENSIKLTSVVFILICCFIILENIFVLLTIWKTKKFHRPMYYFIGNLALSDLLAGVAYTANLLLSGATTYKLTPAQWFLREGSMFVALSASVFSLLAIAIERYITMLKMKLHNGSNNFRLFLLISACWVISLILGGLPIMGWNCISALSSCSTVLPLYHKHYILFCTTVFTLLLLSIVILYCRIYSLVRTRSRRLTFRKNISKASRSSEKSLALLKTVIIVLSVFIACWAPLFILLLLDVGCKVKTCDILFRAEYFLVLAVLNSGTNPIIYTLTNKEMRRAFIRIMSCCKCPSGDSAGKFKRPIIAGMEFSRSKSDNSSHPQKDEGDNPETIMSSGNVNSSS

[2] = molecular target: T1, human sphingosine-1-phosphate receptor 1 (S1P1); test: β-Arrestin2 recruitment assay (PathHunter), S1P1 CHO-K1 cells; type: cell-based; conditions: for hS1P1 B-arrestin2 pEC50: β-arrestin2 recruitment, S1P1 CHO-K1 cells; for Emax: CHO-K1, efficacy (SPAN) normalized to fingolimod, read-out: hS1P1 B-arrestin2 SPAN
Summary of the method: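 Enzyme-fragment complementation read-out: agonist-driven β-arrestin2 binding to ProLink-tagged human S1P1 in stable CHO-K1 cells restores β-galactosidase, measured 1 h at room temperature after a 60 min 37° C. compound incubation. Potency as pEC50, efficacy relative to fingolimod (SPAN).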
Target sequence in this assay (P21453 whole entry, looked up): as above
Target sequence in this assay (P32121 whole entry partner, looked up): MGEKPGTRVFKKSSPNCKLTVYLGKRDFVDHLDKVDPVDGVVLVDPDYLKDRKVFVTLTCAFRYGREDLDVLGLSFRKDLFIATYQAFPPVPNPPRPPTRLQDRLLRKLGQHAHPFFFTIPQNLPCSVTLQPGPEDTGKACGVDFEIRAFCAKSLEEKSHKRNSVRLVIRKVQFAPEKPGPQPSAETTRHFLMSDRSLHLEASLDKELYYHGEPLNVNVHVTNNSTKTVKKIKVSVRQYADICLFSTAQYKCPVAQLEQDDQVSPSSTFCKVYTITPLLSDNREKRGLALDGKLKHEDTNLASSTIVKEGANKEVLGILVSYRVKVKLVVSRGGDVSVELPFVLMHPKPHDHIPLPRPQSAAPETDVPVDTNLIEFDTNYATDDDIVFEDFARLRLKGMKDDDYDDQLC

SMILES | hS1P1 cAMP pEC50 [1] | hS1P1 B-arrestin2 pEC50 [2] | Emax [1] [%] | Emax [2] [%]
CCC1(CC)CC(=O)c2cc(-c3nc(-c4ccccc4OC)no3)ccc2O1 [Compound 268, 2,2-diethyl-6-[3-(2-methoxyphenyl)-1,2,4-oxadiazol-5-yl]chroman-4-one] | >6.5 | >5 |  | 
O=C1c2cc(-c3nc(-c4cccnc4)no3)ccc2OC(CO)(CO)C1Br (stereo not drawn) [Compound 479, 3-bromo-2,2-bis(hydroxymethyl)-6-[3-(pyridin-3-yl)-1,2,4-oxadiazol-5-yl]-3,4-dihydro-2H-1-benzopyran-4-one] | <6.5 | <5 |  | 
COc1cccc2oc(-c3ccc4c(c3)nnn4CC(C)C)nc12 [Compound 450, 2-(1-isobutyl-1H-benzo[d][1,2,3]triazol-5-yl)-4-methoxybenzo[d]oxazole] | >6.5 | >5 | > 75 | > 75
N#Cc1cc(-c2nnc(-c3ccc4c(c3)CCC(=O)N4)o2)ccc1NCC1CC1 [Compound 475, 2-[(cyclopropylmethyl)amino]-5-[5-(2-oxo-1,2,3,4-tetrahydroquinolin-6-yl)-1,3,4-oxadiazol-2-yl]benzonitrile] | >6.5 | >5 |  | 
CCC1(CC)CC(=O)c2cc(-c3nc(-c4cncc(C(F)(F)F)c4)no3)ccc2O1 [Compound 557, 2,2-diethyl-6-(3-(5-(trifluoromethyl)pyridin-3-yl)-1,2,4-oxadiazol-5-yl)chroman-4-one] | <6.5 | >5 |  | 
CC(C)(CO)n1nnc2cc(-c3noc(-c4ccc5nc[nH]c5c4)n3)ccc21 [Compound 642, 2-(5-(5-(1H-benzo[d]imidazol-6-yl)-1,2,4-oxadiazol-3-yl)-1H-benzo[d][1,2,3]triazol-1-yl)-2-methylpropan-1-ol] | <6.5 | <5 |  | 
CCC1(CC)CC(=O)c2cc(-c3nc(-c4ccc5[nH]cnc5c4)no3)ccc2O1 [Compound 211, 6-(3-(1H-benzo[d]imidazol-5-yl)-1,2,4-oxadiazol-5-yl)-2,2-diethylchroman-4-one] | <6.5 | >5 | < 75 | > 75
CC(C)n1nnc2cc(-c3nc4c(o3)-c3ccccc3CC4)ccc21 [Compound 297, 5-{4H,5H-naphtho[2,1-d][1,3]oxazol-2-yl}-1-(propan-2-yl)-1H-1,2,3-benzotriazole] | <6.5 | <5 | > 75 | > 75
Cc1cccc(-c2noc(-c3ccc4c(c3)nnn4C3CCCCC3)n2)c1 [Compound 11, 1-cyclohexyl-5-[3-(3-methylphenyl)-1,2,4-oxadiazol-5-yl]-1H-1,2,3-benzotriazole] | <6.5 | <5 |  | 

Other lines, results leading:

hS1P1 cAMP pEC50 [1] | hS1P1 B-arrestin2 pEC50 [2] | Emax [1] [%] | Emax [2] [%] | SMILES
<6.5 | <5 |  |  | CCC1(CC)CC(=O)c2cc(-c3nc(-c4ccc5nonc5c4)no3)ccc2O1 [Compound 500, 6-[3-(2,1,3-benzoxadiazol-5-yl)-1,2,4-oxadiazol-5-yl]-2,2-diethyl-3,4-dihydro-2H-1-benzopyran-4-one]
<6.5 | >5 | > 75 | > 75 | Cc1ccccc1-c1noc(-c2ccc3c(c2)nnn3C2CCCCC2)n1 [Compound 245, 1-cyclohexyl-5-[3-(2-methylphenyl)-1,2,4-oxadiazol-5-yl]-1H-1,2,3-benzotriazole]
<6.5 | <5 |  |  | Cn1cnc2ccc(-c3nnc(-c4ccc(NC(C)(C)CO)c(C#N)c4)o3)cc21 [Compound 634, 2-[(1-hydroxy-2-methylpropan-2-yl)amino]-5-[5-(1-methyl-1H-1,3-benzodiazol-6-yl)-1,3,4-oxadiazol-2-yl]benzonitrile]
<6.5 | <5 | < 75 | < 75 | Cc1oc(-c2ccc3c(c2)nnn3C(C)C)nc1-c1ccc(Cl)cc1 [Compound 50, 5-[4-(4-chlorophenyl)-5-methyl-1,3-oxazol-2-yl]-1-(propan-2-yl)-1H-1,2,3-benzotriazole]
